# From patent US20110200626A1, “IQGAP3 EPITOPE PEPTIDES AND VACCINES CONTAINING THE SAME” (Oncotherapy Science, Inc., priority 2008, published 2011)
# “Also recorded” adds a separate entry of the source. Ends that are not written are not given here.
# Tests used:
# Assay type in all cases: cell-based, human
# [1] = tested on: peptide-pulsed A24LCL cells; test: IFN-gamma ELISA assay on CTL lines (HLA-A*2402); conditions: target cells pulsed with corresponding peptide vs without peptide
# [2] = tested on: peptide-pulsed A24LCL cells; test: IFN-gamma ELISPOT assay on CTLs induced with HLA-A*2402 restricted peptides; conditions: against peptide-pulsed target cells compared with control without peptide
# peptide-pulsed T2 cells [3] = test: IFN-gamma ELISPOT assay on CTLs induced with HLA-A*0201 restricted peptides; conditions: against peptide-pulsed target cells compared with control without peptide
# peptide-pulsed T2 cells [4] = test: IFN-gamma ELISA assay on CTL lines (HLA-A*0201); conditions: target cells pulsed with corresponding peptide vs without peptide
# peptide-pulsed T2 cells [5] = test: IFN-gamma ELISA assay on CTL clones established by limiting dilution (HLA-A*0201); conditions: peptide-pulsed target cells
# Method: The dilutions were made to have 0.3, 1, and 3 CTLs/well in 96 round-bottomed micro titer plate (Nalge Nunc International). CTLs were cultured with 1×10^4 cells/well of 2 kinds of human B-lymphoblastoid cell lines, 30 ng/ml of anti-CD3 antibody, and 125 U/ml of IL-2 in a total of 150 and/well of AIM-VMedium containing 5% AS. 50 mcl/well of IL-2 were added to the medium 10 days later so to reach a final concentration of 125 U/ml IL-2. CTL activity was tested on the 14th day, and CTL clones were expanded using the same method as described above (Uchida N et al., Clin Cancer Res 2004 Dec. 15, 10(24): 8577-86; Suda T et al., Cancer Sci 2006 May, 97(5): 411-9; Watanabe T et al., Cancer Sci 2005 August, 96(8): 498-506).
# Specifically, peptide-pulsed A24 or T2 LCL (1×10^4/well) was prepared as stimulator cells. Cultured cells in 48 wells were used as responder cells. IFN-gamma ELISPOT assay and IFN-gamma ELISA assay were performed under manufacture procedure.
substance,measurement,setting,value
AYQHLFYLL [SEQ ID NO: 2],IFN-gamma production of established CTL lines (ELISA),[1],potent IFN-gamma production
same,IFN-gamma production of peptide-induced CTLs (ELISPOT),[2]; listed as IQGAP3-A24-9-955,potent IFN-gamma production ability
CFAPSVVPL [SEQ ID NO: 21],IFN-gamma production of established CTL lines (ELISA),[1],potent IFN-gamma production
same,IFN-gamma production of peptide-induced CTLs (ELISPOT),[2]; listed as IQGAP3-A24-9-74,potent IFN-gamma production ability
FLAEaELLKL (FLAEAELLKL; not fully specified (residue 5); printed as FLAEaELLKL) [SEQ ID NO: 113],IFN-gamma production of peptide-induced CTLs (ELISPOT),peptide-pulsed T2 cells [3],no specific IFN-gamma production
FLRTWLPAV [SEQ ID NO: 101],IFN-gamma production of established CTL lines (ELISA),peptide-pulsed T2 cells [4],potent IFN-gamma production
same,IFN-gamma production of peptide-induced CTLs (ELISPOT),peptide-pulsed T2 cells [3]; listed as IQGAP3-A02-9-756,potent IFN-gamma production ability
GLLVkNRITL (GLLVKNRITL; not fully specified (residue 5); printed as GLLVkNRITL) [SEQ ID NO: 130],IFN-gamma production of established CTL lines (ELISA),peptide-pulsed T2 cells [4],potent IFN-gamma production
same,IFN-gamma production of CTL clones (ELISA),peptide-pulsed T2 cells [5]; listed as IQGAP3-A02-10-903,potent IFN-gamma production
same,IFN-gamma production of peptide-induced CTLs (ELISPOT),peptide-pulsed T2 cells [3]; listed as IQGAP3-A02-10-903,potent IFN-gamma production ability
GLVDeLAKDI (GLVDELAKDI; not fully specified (residue 5); printed as GLVDeLAKDI) [SEQ ID NO: 145],IFN-gamma production of established CTL lines (ELISA),peptide-pulsed T2 cells [4],potent IFN-gamma production
same,IFN-gamma production of CTL clones (ELISA),peptide-pulsed T2 cells [5]; listed as IQGAP3-A02-10-1461,potent IFN-gamma production
same,IFN-gamma production of peptide-induced CTLs (ELISPOT),peptide-pulsed T2 cells [3]; listed as IQGAP3-A02-10-1461,potent IFN-gamma production ability
HALGAVAQLL [SEQ ID NO: 67],IFN-gamma production of established CTL lines (ELISA),[1],potent IFN-gamma production
same,IFN-gamma production of peptide-induced CTLs (ELISPOT),[2]; listed as IQGAP3-A24-10-1207,potent IFN-gamma production ability
ILVHaPHPPL (ILVHAPHPPL; not fully specified (residue 5); printed as ILVHaPHPPL) [SEQ ID NO: 148],IFN-gamma production of established CTL lines (ELISA),peptide-pulsed T2 cells [4],potent IFN-gamma production
same,IFN-gamma production of peptide-induced CTLs (ELISPOT),peptide-pulsed T2 cells [3]; listed as IQGAP3-A02-10-842,potent IFN-gamma production ability
IMDkIGLLV [SEQ ID NO: 150],IFN-gamma production of established CTL lines (ELISA),peptide-pulsed T2 cells [4],potent IFN-gamma production
same,IFN-gamma production of peptide-induced CTLs (ELISPOT),peptide-pulsed T2 cells [3]; listed as IQGAP3-A02-10-897,potent IFN-gamma production ability
KALQDPALAL [SEQ ID NO: 57],IFN-gamma production of established CTL lines (ELISA),[1],potent IFN-gamma production
same,IFN-gamma production of peptide-induced CTLs (ELISPOT),[2]; listed as IQGAP3-A24-10-314,potent IFN-gamma production ability
KAQELGLVEL [SEQ ID NO: 53],IFN-gamma production of established CTL lines (ELISA),[1],potent IFN-gamma production
same,IFN-gamma production of peptide-induced CTLs (ELISPOT),[2]; listed as IQGAP3-A24-10-345,potent IFN-gamma production ability
KIGGILANEL [SEQ ID NO: 56],IFN-gamma production of established CTL lines (ELISA),[1],potent IFN-gamma production
same,IFN-gamma production of peptide-induced CTLs (ELISPOT),[2]; listed as IQGAP3-A24-10-191,potent IFN-gamma production ability
KLGHcFAPSV (KLGHCFAPSV; not fully specified (residue 5); printed as KLGHcFAPSV) [SEQ ID NO: 114],IFN-gamma production of established CTL lines (ELISA),peptide-pulsed T2 cells [4],potent IFN-gamma production
same,IFN-gamma production of peptide-induced CTLs (ELISPOT),peptide-pulsed T2 cells [3]; listed as IQGAP3-A02-10-70,potent IFN-gamma production ability
KVNVNLLIFL [SEQ ID NO: 55],IFN-gamma production of established CTL lines (ELISA),[1],potent IFN-gamma production
same,IFN-gamma production of peptide-induced CTLs (ELISPOT),[2]; listed as IQGAP3-A24-10-1614,potent IFN-gamma production ability
LEAYqHLFYL (LEAYQHLFYL; not fully specified (residue 5); printed as LEAYqHLFYL) [SEQ ID NO: 139],IFN-gamma production of established CTL lines (ELISA),peptide-pulsed T2 cells [4],potent IFN-gamma production
same,IFN-gamma production of peptide-induced CTLs (ELISPOT),peptide-pulsed T2 cells [3]; listed as IQGAP3-A02-10-953,potent IFN-gamma production ability
LLAKlGHCFA (LLAKLGHCFA; not fully specified (residue 5); printed as LLAKlGHCFA) [SEQ ID NO: 143],IFN-gamma production of established CTL lines (ELISA),peptide-pulsed T2 cells [4],potent IFN-gamma production
same,IFN-gamma production of CTL clones (ELISA),peptide-pulsed T2 cells [5]; listed as IQGAP3-A02-10-67,potent IFN-gamma production
same,IFN-gamma production of peptide-induced CTLs (ELISPOT),peptide-pulsed T2 cells [3]; listed as IQGAP3-A02-10-67,potent IFN-gamma production ability
LLPAaGLDDV (LLPAAGLDDV; not fully specified (residue 5); printed as LLPAaGLDDV) [SEQ ID NO: 125],IFN-gamma production of established CTL lines (ELISA),peptide-pulsed T2 cells [4],potent IFN-gamma production
same,IFN-gamma production of peptide-induced CTLs (ELISPOT),peptide-pulsed T2 cells [3]; listed as IQGAP3-A02-10-548,potent IFN-gamma production ability
MYQLELAVL [SEQ ID NO: 6],IFN-gamma production of established CTL lines (ELISA),[1],no specific IFN-gamma production
same,IFN-gamma production of established CTL lines (ELISA),[1]; listed as IQGAP3-A24-9-417,typical negative data of CTL response
same,IFN-gamma production of peptide-induced CTLs (ELISPOT),[2]; listed as IQGAP3-A24-9-417,typical negative data of CTL response; also recorded: no specific IFN-gamma production
PYDVTPEQAL [SEQ ID NO: 49],IFN-gamma production of established CTL lines (ELISA),[1],potent IFN-gamma production
same,IFN-gamma production of peptide-induced CTLs (ELISPOT),[2]; listed as IQGAP3-A24-10-1097,potent IFN-gamma production ability
QLHYqDLLQL (QLHYQDLLQL; not fully specified (residue 5); printed as QLHYqDLLQL) [SEQ ID NO: 140],IFN-gamma production of established CTL lines (ELISA),peptide-pulsed T2 cells [4],potent IFN-gamma production
same,IFN-gamma production of peptide-induced CTLs (ELISPOT),peptide-pulsed T2 cells [3]; listed as IQGAP3-A02-10-1590,potent IFN-gamma production ability
QYEGVAVMKL [SEQ ID NO: 35],IFN-gamma production of established CTL lines (ELISA),[1],potent IFN-gamma production
same,IFN-gamma production of peptide-induced CTLs (ELISPOT),[2]; listed as IQGAP3-A24-10-1600,potent IFN-gamma production ability
RLDIALRNLL [SEQ ID NO: 63],IFN-gamma production of established CTL lines (ELISA),[1],potent IFN-gamma production
same,IFN-gamma production of peptide-induced CTLs (ELISPOT),[2]; listed as IQGAP3-A24-10-1114,potent IFN-gamma production ability
RNGVLLAKL [SEQ ID NO: 32],IFN-gamma production of established CTL lines (ELISA),[1],potent IFN-gamma production
same,IFN-gamma production of peptide-induced CTLs (ELISPOT),[2]; listed as IQGAP3-A24-9-63,potent IFN-gamma production ability
RQNVAYQYL [SEQ ID NO: 25],IFN-gamma production of established CTL lines (ELISA),[1],potent IFN-gamma production
same,IFN-gamma production of peptide-induced CTLs (ELISPOT),[2]; listed as IQGAP3-A24-9-26,potent IFN-gamma production ability
RSLLLSTKQL [SEQ ID NO: 62],IFN-gamma production of established CTL lines (ELISA),[1],potent IFN-gamma production
same,IFN-gamma production of peptide-induced CTLs (ELISPOT),[2]; listed as IQGAP3-A24-10-1363,potent IFN-gamma production ability
RVVYCIHAL [SEQ ID NO: 29],IFN-gamma production of established CTL lines (ELISA),[1],potent IFN-gamma production
same,IFN-gamma production of peptide-induced CTLs (ELISPOT),[2]; listed as IQGAP3-A24-9-137,potent IFN-gamma production ability
SMYQlELAVL (SMYQLELAVL; not fully specified (residue 5); printed as SMYQlELAVL) [SEQ ID NO: 142],IFN-gamma production of established CTL lines (ELISA),peptide-pulsed T2 cells [4],potent IFN-gamma production
same,IFN-gamma production of peptide-induced CTLs (ELISPOT),peptide-pulsed T2 cells [3]; listed as IQGAP3-A02-10-416,potent IFN-gamma production ability
VYCIHALSLF [SEQ ID NO: 40],IFN-gamma production of established CTL lines (ELISA),[1],potent IFN-gamma production
same,IFN-gamma production of peptide-induced CTLs (ELISPOT),[2]; listed as IQGAP3-A24-10-139,potent IFN-gamma production ability
VYKVVGNLL [SEQ ID NO: 4],IFN-gamma production of established CTL lines (ELISA),[1],potent IFN-gamma production
same,IFN-gamma production of peptide-induced CTLs (ELISPOT),[2]; listed as IQGAP3-A24-9-1167,potent IFN-gamma production ability
YLLQtQPIYL (YLLQTQPIYL; not fully specified (residue 5); printed as YLLQtQPIYL) [SEQ ID NO: 111],IFN-gamma production of established CTL lines (ELISA),peptide-pulsed T2 cells [4],potent IFN-gamma production
same,IFN-gamma production of peptide-induced CTLs (ELISPOT),peptide-pulsed T2 cells [3]; listed as IQGAP3-A02-10-961,potent IFN-gamma production ability
YYSQYIRACL [SEQ ID NO: 37],IFN-gamma production of established CTL lines (ELISA),[1],potent IFN-gamma production
same,IFN-gamma production of peptide-induced CTLs (ELISPOT),[2]; listed as IQGAP3-A24-10-1507,potent IFN-gamma production ability
